From patent US20120029054A1, “RNA Interference Mediated Inhibition of GATA Binding Protein 3 (GATA3) Gene Expression Using Short Intefering Nucleic Acid (siNA)” (Merck Sharp & Dohme Corp., priority 2009, published 2012)
[invAb] = inverted abasic unit; m = 2'-O-methyl; r = 2'-OH (RNA); f = 2'-fluoro

Tests used:
GATA3 mRNA [1] = experiment: GATA3 mRNA knock-down (Taqman qRT-PCR) after RNAiMax transfection of human MCF7 cells; screen and IC50 dose response; type: cell-based; settings: for % KD Human: 10 nM siNA, 24 hrs; for % KD Human / IC50: MCF7 cells; for IC50 / % KD GATA3 mRNA at 10 nM / % KD GATA3 10 nM: mean ± S.D.; for % KD GATA3 mRNA at 10 nM: Table 4, MCF7 cells, no assay mark printed (same values marked * in Table 3); for % KD GATA3 10 nM: Table 5, MCF7 cells, three experiments, no assay mark printed
Outline: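 MCF7 cells (5000/well, 24 h) transfected with siNA–RNAiMax complexes at 10 nM final siNA for 24 h without media change. GATA3 mRNA measured by TaqMan qRT-PCR, alongside β-actin and GAPDH probes. % knock-down by comparative Ct (2^−ΔΔCt) relative to non-targeting control siNA.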

GATA3 protein = experiment: GATA3 Western Blot in transfected MCF7 cells (6-well plate); type: cell-based, human; settings: 30 nM, 48 hours, average band ratio ± S.D.
Experimental: MCF7 cells were plated in 6-well plates at final counts of 70,000 cells/well in 2 ml of complete growth media. Transfection was performed using 2.5 uL of RNAiMax per well. Final concentration of siNAs was 30 nM (screen) and 30, 0.3, and 0.003 nM (dose response study). Protein lysates were harvested 24, 48, and 72 hours post-transfection (screen) and 72 hours post-transfection (dose response study). Protein lysates were prepared using Cell Disruption Buffer from the PARIS kit (Ambion, cat #1921) according to manufacturer's instructions. Protein concentration was measured using a Bradford Quick Start Kit (Bio-Rad, cat#500-0205).
The protein source for the Western Blot experiments were from transfection of MCF7 cells in a 6 well plate, as described above.
Protein samples were diluted 1:1 in 2× Laemmli buffer with 5% β-mercapto-ethanol and incubated at 95° C. for 5 minutes. 20-40 ug of protein was loaded in each lane of 10% Tris-HCl gel. One lane was designated for MagicMark Protein Standard (Invitrogen # LC5602). The gel was run at 100V for approximately 2 hours. Protein was transferred to a PVDF membrane at 100V for 60 minutes. Once the transfer was finished, the membrane was blocked in 1% Casein in PBS (BioRad Cat#161-0783) for 1 hour on a plate rocker at room temperature followed by the overnight incubation at 4° C. with mouse monoclonal anti-GATA3 primary antibody (Santa Cruz Biotechnology, cat# HG3-31) diluted 1:500 in 1% Casein in PBS. On the next day, the blot was washed 4×5 minutes in PBST (0.1% Tween-20 in PBS) solution and incubated for 30 minutes at room temperature with goat anti-mouse secondary antibody (Pierce Biotechnology, cat#3 31430) diluted 1:20,000 in 1% Casein. […]
The protein bands were quantified by computing their density which is defined by the ratio between the total intensity of all pixels and the area of the rectangle drawn around each band (intensity/mm^2). The density was calculated by the BioRad software.
The level of protein was quantified using the Bio-Rad VersaDoc Imager according to the protocols of that piece of equipment. […]

human GAPDH mRNA = experiment: GAPDH specificity screen in human MCF7 cells (β-Actin normalised qRT-PCR); type: cell-based; settings: normalised to β-Actin, three experiments, mean ± S.D.
Experimental: A series of probes and primers were used to detect the various mRNA transcripts of the genes of β-Actin (human cell line only), and of GATA3 and GAPDH in mouse and human cell lines. All Taqman probes and primers for the experiments here-in described were supplied as pre-validated sets by Applied Biosystems, Inc. (see Table 2).
The assays were performed on an ABI 7900 instrument, according to the manufacturer's instructions. A TaqMan Gene Expression Master Mix (provided in the Cells-to-CT™, Applied Biosystems, Cat #4399002) was used. The PCR reactions were carried out at 50° C. for 2 min, 95° C. for 20 min followed by 40 cycles at 95° C. for 15 secs and 60° C. for 1 min.
The expression level of the gene of interest and % knock-down was calculated using Comparative Ct method: […]
These same three siNAs were tested for specificity in the human MCF7 cell line at 10 nM concentration to determine the effect of the GATA3 siNAs on the mRNA transcript of human GAPDH. In this assay, the samples from the primary screen, discussed above, O-Actin, a ubiquitously expressed ‘house-keeping’ gene, served as an endogenous control for normalization of the data.

GATA3 mRNA [2] = experiment: GATA3 mRNA knock-down (Taqman qRT-PCR) after RNAiMax transfection of mouse RAG cells; type: cell-based; settings: 10 nM siNA, 24 hrs, average of 2 experiments
Outline: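 Murine RAG cells, 5000/well, transfected 24 h after plating with siNA (10 nM final) complexed with RNAiMax, harvested after 24 h. GATA3 mRNA quantified by TaqMan qRT-PCR with GAPDH reference; % knock-down by comparative Ct (2^−ΔΔCt) versus non-targeting control siNA.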

Row | Substance | % KD Human (GATA3 mRNA [1]; * Hs00231122_m1 Taqman Assay) | % KD Human (GATA3 mRNA [1]; ** Hs00922328_m1 Taqman Assay) | IC50 (GATA3 mRNA [1]) [nM] | % KD GATA3 mRNA at 10 nM (GATA3 mRNA [1]) [%] | % KD GATA3 10 nM (GATA3 mRNA [1]) [%] | Density (GATA3)/Density (α-Tubulin) (GATA3 protein) | % KD GAPDH 10 nM (human GAPDH mRNA) [%] | % KD Mouse (GATA3 mRNA [2]) [%]
1 | 30260-DC: GATA3 siNA duplex, site 1691: sense B GcAuGAcucAcuGGAGGAc TTB (SEQ 73), antisense GUCcuccAGuGAGucAuGcUU (SEQ 74) (sense GCAUGACUCACUGGAGGACTT; antisense GUCCUCCAGUGAGUCAUGCUU; chemistry not fully specified) | 60 ± 1* % | 69 ± 9** % | 0.254 ± 0.212 | 60 ± 1 | 60 ± 1 | 0.025 ± 0.0007 | −38 ± 9 | 47 ± 0
2 | 30261-DC: GATA3 siNA duplex, site 1637: sense B cAuccAGAccAGAAAccGA TTB (SEQ 75), antisense UCGGuuucuGGucuGGAuGUU (SEQ 76) (sense CAUCCAGACCAGAAACCGATT; antisense UCGGUUUCUGGUCUGGAUGUU; chemistry not fully specified) | 77 ± 4* % | 77 ± 4** % | 0.051 ± 0.03 | 77 ± 4 | 77 ± 4 | 0.01 ± 0.00004 | −17 ± 1 | 72 ± 2
3 | 30285-DC: GATA3 siNA duplex, human/mouse site 2129: sense B GGucucuAGuGcuGuGAAA TTB (SEQ 123), antisense UUUcAcAGcAcuAGAGAccUU (SEQ 124) (sense GGUCUCUAGUGCUGUGAAATT; antisense UUUCACAGCACUAGAGACCUU; sense: DNA at AGT, 2'-fluoro at CU, [invAb] at 5' end, 3' end, backbone not given here; antisense: sugars from the 5' end rrrfmfmmfmffmmmmmffmm, backbone not given here) | 49 ± 11* % | 52 ± 10** % | – | – | – | – | – | 69 ± 1
4 | 30286-DC: GATA3 siNA duplex, human/mouse site 1956: sense B GcAGGAGcAGuAucAuGAA TTB (SEQ 125), antisense UUCAuGAuAcuGcuccuGcUU (SEQ 126) (sense GCAGGAGCAGUAUCAUGAATT; antisense UUCAUGAUACUGCUCCUGCUU; sense: DNA at AGT, 2'-fluoro at CU, [invAb] at 5' end, 3' end, backbone not given here; antisense: sugars from the 5' end rrrmfmmfmffmfffffmfmm, backbone not given here) | 45 ± 3* % | 40 ± 16** % | – | – | – | – | – | 66 ± 0
